From patent US9700578B2, “Use of nitrite salts for the treatment of cardiovascular conditions” (The United States of America as represented by the …, priority 2003, dated 2017)

Tests used:
deoxyhemoglobin = deoxyhemoglobin (Homo sapiens, UniProt P68871+P69905); conditions: 25° C., pH 7.0; cited from earlier work
[1] = test system: deoxygenated erythrocytes
Description: To determine whether free NO radical can form from the reaction of nitrite and deoxyhemoglobin, 100 and 200 μM nitrite was mixed with 5 mL of 660 and 1000 μM deoxygenated erythrocytes in a light protected reaction vessel purged with helium or oxygen (both 21% and 100%) in-line with a chemiluminescent NO analyzer (Seivers, Boulder, Colo.). After allowing equilibration for 5 minutes, nitrite was injected and the rate of NO production measured. Nitrite was injected into PBS as a control and into 100 μM hemoglobin to control for the hemolysis in the 660 and 1000 μM deoxygenated erythrocyte solutions. At the end of all experiments the visible absorption spectra of the supernatant and erythrocyte reaction mixture was analyzed and hemoglobin composition deconvoluted using a least-squares algorithm.
To determine whether free NO radical can form from the reaction of nitrite and deoxyhemoglobin, 100 and 200 μM nitrite was reacted with deoxygenated erythrocytes (5 mL volume containing a total of 660 and 1000 μM in heme) in a light protected reaction vessel purged with helium in-line with a chemiluminescent NO analyzer (Seivers, Boulder, Colo.).

[2] = test system: hepatic ischemia-reperfusion injury; test: Hepatic ischemia-reperfusion (I/R) injury; type: in vivo, mice
Description: Carboxy-PTIO [2-(4-Carboxyphenyl)-4,4,5,5-tetramethylimidazoline-1-oxyl-3-oxide potassium salt], a direct intravascular NO scavenger, was utilized to inhibit NO dependent effects following hepatic I/R injury. Carboxy-PTIO (Alexis Biochemicals) was dissolved in phosphate buffered saline and administered intravenously at a dose of 1 mg/Kg in a volume of 50 μL at 30 minutes prior to hepatic ischemia Zinc(II) Deuteroporphyrin IX-2,4-bisethyleneglycol (ZnDBG) (Alexis Biochemicals), a heme oxygenase-1 inhibitor was injected i.p. at a dose of 10 mg/Kg in a volume of 50 μL at 30 minutes prior to the induction of hepatic ischemia.
All of the mice utilized in the present studies were C57BL6/J at 8-10 weeks of age obtained from the Jackson Laboratories (Bar Harbor, Me.). In additional experiments of hepatic I/R injury we utilized mice completely deficient (−/−) in endothelial nitric oxide synthase (eNOS). eNOS−/− mice were originally generously donated from Dr. Paul Huang (Mass. General Hospital) and generated in our breeding colony at LSU-Health Sciences Center. eNOS−/− mice were utilized at 8-10 weeks of age.
The hepatic I/R protocol is depicted in FIG. 6A and has been described previously (Hines et al., Biochem Biophys Res Commun 284:972-976, 2001; Hines et al., Am J Physiol Gastrointest Liver Physiol 284:G536-545, 2001). Mice were anesthetized with the combination of ketamine (100 mg/kg) and zylazine (8 mg/kg) and a midline laparotomy was performed to expose the liver. Mice were then injected with heparin (100 μg/kg, i.p.) to prevent blood clotting. The left lateral and median lobes of the liver were rendered ischemic by completely clamping the hepatic artery and the portal vein using microaneurysm clamps. This experimental model results in a segmental (70%) hepatic ischemia. This method of partial ischemia prevents mesenteric venous congestion by allowing portal decompression throughout the right and caudate lobes of the liver. The liver was then repositioned in the peritoneal cavity in its original location for 45 minutes. The liver was kept moist using gauze soaked in 0.9% normal saline. In addition, body temperature was maintained at 37° C. using a heat lamp and monitoring body temperature with a rectal temperature probe. Sham surgeries were identical except that hepatic blood flow was not reduced with a microaneurysm clamp. The duration of hepatic ischemia was 45 minutes in all experiments, following which the microaneurysm clamps were removed. The duration of hepatic reperfusion was 5 hours in the studies of serum liver transaminase levels (i.e., AST or ALT) and 24 hours for the studies of liver histopathology (such as hepatocellular infarction).
Serum samples were analyzed for aspartate aminotransferase (AST) and alanine aminotransferase (ALT) using a spectrophotometric method (Sigma Chemical Co., St. Louis, Mo.) (Harada et al., Proc Natl Acad Sci USA 100:739-744, 2003). These enzymes are liver specific and are released from the liver during injury (Hines et al., Biochem Biophys Res Commun 284:972-976, 2001; Hines et al., Am J Physiol Gastrointest Liver Physiol 284:G536-545, 2001). […]

[3] = test system: myocardial ischemia-reperfusion injury
Description: Briefly, mice were anesthetized with intraperitoneal injections of ketamine (50 mg/kg) and pentobarbital sodium (50 mg/kg). The animals were then attached to a surgical board with their ventral side up. […] The mice were supplemented with 100% oxygen via the ventilator side port. A median sternotomy was performed using an electric cautery and the proximal left main coronary artery was visualized and completely ligated with 7-0 silk suture mounted on a tapered needle (BV-1 ethicon). In the initial experiments of myocardial infarct size coronary occlusion was maintained for 30-minutes followed by removal of suture and reperfusion for 24 hours. […] In these experiments, two-dimensional echocardiography was performed at baseline and again at 48 hours of reperfusion.
At 24 hours of reperfusion, the mice were anesthetized as described previously, intubated, and connected to a rodent ventilator. A catheter (PE-10 tubing) was placed in the common carotid artery to allow for Evans Blue dye injection. A median sternotomy was performed and the left main coronary artery was re-ligated in the same location as before Evans Blue dye (1.2 mL of a 2.0% solution, Sigma Chemical Co.) was injected into the carotid artery catheter into the heart to delineate the ischemic zone from the nonischemic zone. The heart was rapidly excised and serially sectioned along the long axis in five, 1 mm thick sections that were then incubated in 1.0% 2,3,5-triphenyltetrazolium chloride (Sigma Chemical Co.) for 5 minutes at 37° C. to demarcate the viable and nonviable myocardium within the risk zone.
Ventricular parameters were measured using leading-edge technique. M-mode (sweep speed=200 mm/sec) echocardiograms were captured from parasternal, short and long-axis 2D views of the left ventricle (LV) at the mid-papillary level. LV percent fractional shortening (FS) was calculated according to the following equation: LV % FS=((LVEDD−LVESD)/LVEDD)×100. All data were calculated from 10 cardiac cycles per experiment.

[4] = test system: right middle cerebral artery vasospasm
Description: An autologous arterial blood clot was placed around the right middle cerebral artery (R MCA) of 14 anesthetized Cynomolgus monkeys at day 0. […] Cerebral arteriogram was performed before clot placement and on days 7 and 14, for assessment of DCV. Arteriographic vasospasm was defined as a 25% or greater reduction in the proximal 14 mm of the R MCA area as measured on the AP projection of the cerebral arteriogram (blinded assessment). Mean arterial blood pressure was measured and blood samples were collected daily from day 0; the cerebral spinal fluid samples were collected on day 0, 7, and 14.

forearm circulation = conditions: concentrations of 200 μM in the forearm, Lauer et al.; cited from earlier work
[5] = 48 nmoles of nitrite, n=3; before 594±83
Description: For blood nitrite measurements, 160 μL of whole blood was mixed with 40 μL of a nitrite stabilizing solution containing 80 mM ferricyanide, 20 mM N-ethylmaleimide (NEM), 200 μL diethylenetriaminepentaacetic acid (DTPA), and 0.2% NP-40 (concentrations provided are after mixing with whole blood). The nitrite in whole blood was then measured using tri-idodide-based reductive chemiluminescence as previously described and validated (Gladwin et al., J Biol Chem 21:21, 2002; Yang et al., Free Radic Res 37:1-10, 2003).

[6] = 48 nmoles into left ventricular cavity 5 min prior to reperfusion, versus 48 nmoles nitrate
[7] = 45 minutes ischemia, 48 hours reperfusion

Chain of deoxyhemoglobin (P69905 2-142 limits assumed): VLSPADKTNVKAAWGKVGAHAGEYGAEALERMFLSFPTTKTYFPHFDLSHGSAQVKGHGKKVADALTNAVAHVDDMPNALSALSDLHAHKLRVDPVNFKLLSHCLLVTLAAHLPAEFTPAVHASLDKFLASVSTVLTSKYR
Chain of deoxyhemoglobin (P68871 2-147 limits assumed): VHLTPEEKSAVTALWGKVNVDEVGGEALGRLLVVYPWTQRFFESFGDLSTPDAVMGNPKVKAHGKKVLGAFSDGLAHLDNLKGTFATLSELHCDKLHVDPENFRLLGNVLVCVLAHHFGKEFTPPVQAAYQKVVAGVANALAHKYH

## O=NO [sodium nitrite]
deoxyhemoglobin
  rate constant of nitrite reduction to NO and methemoglobin: 2.9 M⁻¹ s⁻¹
[1]; 21% and 100% oxygen, versus deoxygenated erythrocytes
  NO release on addition to oxygenated erythrocytes: significantly less NO
[1]; 100 and 200 μM nitrite, deoxygenated erythrocytes 660 and 1000 μM in heme, helium purged
  rate of NO production in the 5 mL reaction volume: 47 pM per second
[1]; PBS, same conditions
  NO release into the gas phase in buffer control: no release
[2]; 1.2 nmoles added nitrite
  calculated blood level at which a protective effect was observed: 600 nM
[2]; 48 nmoles added nitrite, 2 mL blood volume
  calculated systemic concentration of peak effect on AST and ALT: 24 µM
[2]; 24 μM (48 nmoles), versus saline and nitrate treated animals
  hepatocellular injury (histopathology) at 24 hours of reperfusion: significantly reduced
[2]; 45 minutes ischemia, 24 hours reperfusion
  hepatocellular apoptosis (TUNEL): significantly (p<0.001) attenuated
[2]; heme oxygenase 1 inhibitor pre-treatment, nitrite 24 μM
  tissue injury in mice pre-treated with ZnDPBG (serum AST): significantly limited tissue injury
[2]; hepatic I/R
  near-physiological nitrite concentration with highly significant protective effects: 0.6 μM
[2]; intraperitoneal during hepatic ischemia, 45 min ischemia, 5 h reperfusion, nitrite 1.2-480 nmoles, nitrate 48 nmoles
  serum elevations of liver transaminases AST and ALT: dose-dependently limited
[2]; mouse, in vivo
  cytoprotection in eNOS deficient mice (serum AST): significant nitrite cytoprotection
[3]; [6]
  reduction of myocardial infarct size per area-at-risk: 67%
  reduction of myocardial infarct size per left ventricle: 67%
[3]; [7]
  left ventricular fractional shortening versus vehicle group: significantly (p<0.02) greater
  myocardial ejection fraction versus baseline: remained essentially unchanged
[4]; 45 mg/kg and 60 mg/kg per day
  blood levels of nitrite: 10 to 60 µM
  increases in blood methemoglobin concentrations: ≤ 2%
  methemoglobin formation: < 5%
[4]; 45 mg/kg and 60 mg/kg per day i.v. for 14 days, saline 45±5
  mean reduction in the R MCA area on day 7 after SAH: 8±9%
[4]; 14 days infusion
  systemic hypotension: without systemic hypotension
  toxicity: no clinical or pathological evidence of nitrite toxicity
[4]; nitrite infused animals, n=6
  development of significant vasospasm: no animals developed significant vasospasm
Forearm circulation
  vasodilatory effect in human forearm: no vasodilatory effects
[5]
  blood nitrite level after treatment: 727 ± 40 nM
